Measured values: patent publication US20090054312A1, “SMIPs: Small molecule inhibitors of p27 depletion in cancers and other proliferative diseases” (priority 2007, published 2009)
Where a name gives a salt, the structure may show the parent alone. Read-outs that look alike come from different tables or passages of the source.

Assays:
[1] = tested on: p27 levels in LNCaP-S14 cells; test: p27 immunofluorescence screening assay in LNCaP-S14 cells; conditions: for accumulation of p27, fold-induction normalized to DMSO: IF assay, 16 hours; for % positive: p27-positive cells; for % positive / Z score: cell line not given; for Z score: Table 1, standard deviations from plate mean
LNCaP-S14 cells = test: MTT viability assay, LNCaP-S14; type: cell-based, human; conditions: 72 h, Table 4, read-out: IC50 (concentration of 50% growth inhibition), LNCaP-S14
Experimental: We next explored the effects of SMIPs on cell viability. S14 and IMR90 cells were exposed to increasing concentrations of SMIPs for 72 h and scored for viability using the MTT assay. IC50 values (concentration of 50% growth inhibition) were calculated (Table 4).
We next compared IC50 values for cytotoxicity of SMIP004 in S14 compared with parental LNCaP cells. […] We are testing whether SMIP-induced cytotoxicity is due to apoptosis.

[2] = tested on: IMR90 normal human fibroblasts; test: MTT viability assay, IMR90; type: cell-based; conditions: Table 4, read-out: IC50 (concentration of 50% growth inhibition), IMR90
Experimental: We next explored the effects of SMIPs on cell viability. […] IC50 values (concentration of 50% growth inhibition) were calculated (Table 4).

[3] = SMIP concentration 40 (maximum dose)
[4] = Table 1, compounds showing SMIP activity in the secondary screen

Row | Molecule | % positive [1, 4] [%] | Z score [1] | also measured
1 | O=C(CSC1=NNC(c2ccccn2)S1)c1cccc(F)c1 (centres unmarked) [SMIP018] |  |  | accumulation of p27, fold-induction normalized to DMSO ([1]; SMIP concentration 1): 0.26 fold; accumulation of p27, fold-induction normalized to DMSO ([1]; SMIP concentration 5): 0.71 fold; accumulation of p27, fold-induction normalized to DMSO ([1]; SMIP concentration 10): 0.67 fold; accumulation of p27, fold-induction normalized to DMSO ([1]; SMIP concentration 20): 0.92 fold; accumulation of p27, fold-induction normalized to DMSO [1, 3]: 3.07 fold; IC50 (LNCaP-S14 cells): > 40 µM; IC50 ([2]; 72 h): > 40 µM
2 | O=C(Nc1ccccc1)Nc1ccc(SCc2nc(OCC(F)(F)F)cc(OCC(F)(F)F)n2)cc1 [SMIP012] |  |  | accumulation of p27, fold-induction normalized to DMSO ([1]; SMIP concentration 1): 0.42 fold; accumulation of p27, fold-induction normalized to DMSO ([1]; SMIP concentration 5): 2.17 fold; accumulation of p27, fold-induction normalized to DMSO ([1]; SMIP concentration 10): 1.95 fold; accumulation of p27, fold-induction normalized to DMSO ([1]; SMIP concentration 20): 3.30 fold; accumulation of p27, fold-induction normalized to DMSO [1, 3]: 2.43 fold; IC50 (LNCaP-S14 cells): 4.59 µM; IC50 ([2]; 72 h): ~10 µM
3 | C/C=C(/C)C(=O)O[C@H]1C(C)=C2[C@H]([C@@H]1OC(=O)CCCCCCC)[C@@](C)(OC(C)=O)C[C@H](OC(=O)CCC)[C@@]1(O)[C@H]2OC(=O)[C@@]1(C)O [Thapsigargin, reference compound] |  |  | IC50 (LNCaP-S14 cells; Homo sapiens): 0.0078 µM; IC50 ([2]; Homo sapiens, IMR-90, 72 h): 0.0311 µM
4 | CCCCC(CC)CNC(=N)NC(=N)NCCCCCCNC(=N)NC(=N)NCC(CC)CCCC (centres unmarked) [Alexidine hydrochloride, reference compound] | 17.48 | 9.38 | 
5 | CN(C)CC/C=C1/c2ccccc2Sc2ccc(Cl)cc21 [Chlorprothixene hydrochloride, reference compound] | 7.49 | 2.1477 | 
6 | CC1CN(C(=O)c2cc(-c3ccc(Cl)cc3)cs2)CC(C)O1 (centres unmarked) [4-[[(4-(4-chlorophenyl)thiophen-2-yl]carbonyl]-2,6-dimethylmorpholine] | 23.93 | 14.0559 | 
7 | O=C(CCCN1CCC2(CC1)C(=O)NCN2c1ccccc1)c1ccc(F)cc1 [Spiperone, reference compound] | 32.90 | 20.5550 | 
8 | Oligomycin A [Oligomycin A (mix of A, B, C), reference compound] | 26.65 | 16.0298 | 
9 | CC[C@@H](C(=O)[C@@H](C)[C@@H](O)[C@H](C)[C@@H]1O[C@@H]([C@@H](CC)C(=O)O)CC[C@@H]1C)[C@H]1O[C@]2(C=C[C@@H](O)[C@]3(CC[C@@](C)([C@H]4CC[C@](O)(CC)[C@H](C)O4)O3)O2)[C@H](C)C[C@@H]1C [Salinomycin, sodium, reference compound] |  | 37.4159 | % positive ([1]; […]): 56.17%
10 | CO[C@@]12[C@H](COC(N)=O)C3=C(C(=O)C(C)=C(N)C3=O)N1C[C@@H]1N[C@@H]12 [Mitomycin C, reference compound] | 42.52 | 27.5299 | 
11 | Clofilium tosylate [reference compound] | 53.49 | 35.4749 | 
12 | CC1=CC(=O)c2ccccc2C1=O [Menadione, reference compound] | 38.33 | 24.4943 | 
13 | CSc1ccc2c(c1)C(N1CCN(C)CC1)Cc1ccccc1S2.O=C(O)/C=C\C(=O)O (centres unmarked) [Methiothepin maleate, reference compound] | 9.08 | 3.2976 | 
14 | CCC(=O)N(Cc1cccc(Cl)c1)c1ccc2[nH]c(C(C)(C)C)cc2c1 [N-(2-tert-butyl-(1H)-indol-5-yl)-N-(3-chlorobenzyl)propanamide] | 33.19 | 20.7674 | 
15 | Cc1cc(C2CCCCC2)n(O)c(=O)c1 [Ciclopirox olamine, reference compound] | 28.54 | 17.3996 | 
16 | COc1ccc(C[C@H](N)C(=O)N[C@H]2[C@@H](O)[C@H](n3cnc4c(N(C)C)ncnc43)O[C@@H]2CO)cc1 [Puromycin hydrochloride, reference compound] | 63.07 | 42.4217 | 
17 | Clc1ccc(CSC(Cn2ccnc2)c2ccc(Cl)cc2Cl)cc1 (centres unmarked) [Sulconazole nitrate, reference compound] | 19.81 | 11.0719 | 
18 | COc1ccc(CCN2CCC(Nc3nc4ccccc4n3Cc3ccc(F)cc3)CC2)cc1 [Astemizole, reference compound] | 7.37 | 2.0598 | 
19 | O=C(Nc1ccccc1)Nc1ccc(SCc2nc(OCC(F)(F)F)cc(OCC(F)(F)F)n2)cc1 [N-[4-[[[4,6-bis(2,2,2-trifluoroethoxy)pyrimidin-2-yl]methyl]thio]phenyl]-N′′-phenylurea] | 39.26 | 25.1654 | 
20 | CCCCCCSc1nnc(N)s1 [5-hexylsulfanyl-1,3,4-thiadiazol-2-amine] | 38.52 | 24.6282 | 
21 | Cc1cccn2c(=O)c3c(nc12)CCN(C(=O)c1ccc(C(C)(C)C)cc1)C3 [2-(4-tert-butylbenzoyl)-6-methyl-1,2,3,4-tetrahydro-11H-dipyrido-[1,2-a:4′,3′-d]pyrimidin-11-one] | 19.38 | 10.7588 | 
22 | COc1ccc(S(=O)(=O)Nc2ccc3[nH]c(C(C)(C)C)cc3c2)cc1 [N-(2-tert-butyl-(1H)-indol-5-yl)-4-methoxybenzenesulfonamide] | 29.15 | 17.8415 | 
23 | C[n+]1cc2c3c(ccc2c2ccc4cc5c(cc4c21)OCO5)OCO3 [Sanguinarine nitrate, reference compound] |  | 11.4629 | % positive ([1]; […]): 20.35%
24 | CCC1(C2OC(C3OC(O)(CO)C(C)CC3C)CC2C)CCC(C2(C)CCC3(CC(O)C(C)C(C(C)C(OC)C(C)C(=O)[O-])O3)O2)O1.[Na+] (centres unmarked) [Monensin, sodium salt, sodium 4-[2-[5-ethyl-5-[5-[6-hydroxy-6-(hydroxymethyl)-3,5-dimethyl-oxan-2-yl]-3-methyl-oxolan-2-yl]oxolan-2-yl]-9-hydroxy-2,8-dimethyl-1,6-dioxaspiro[4.5]decan-7-yl)-3-methoxy-2-methyl-pentanoate, reference compound] |  | 33.5974 | % positive ([1]; […]): 50.90%
25 | CC(=O)Nc1ccc(S(=O)(=O)N(Cc2ccc3c(c2)CCO3)C2CC2)cc1 [N-(4-{[cyclopropyl(2,3-dihydro-1-benzofuran-5-ylmethyl)amino]sulfonyl}phenyl)acetamide] | 14.84 | 7.4706 | 
26 | C=C(CC)C(=O)c1ccc(OCC(=O)O)c(Cl)c1Cl [Ethacrynic acid, reference compound] | 18.71 | 10.2724 | 
